SMILES strings stand for the structures.

For assay [1], the target named is T1, Wild Type ALK kinase (Homo sapiens, UniProt Q9UM73).
T1 construct: purchased Sino-US Crown Bioscience, Inc. batch number ALK 20110607
Kind of assay: HTRF KinEASE-TK assay, inhibitory activity on wild type ALK kinase. The class given is biochemical. The settings on record: wild type ALK 1 ng/μl, substrate 1 μM, 30° C. 35 minutes, read-out: Inhibition on ALK kinases (wildtype), IC50. The gist of the method: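 ALK kinase at 1 ng/μl and substrate at 1 μM were reacted with compound (1% DMSO) in buffer with 5 mM MgCl2 and 1 mM DTT for 35 min at 30 °C. HTRF detection used the 665/615 ratio, normalised to no-compound wells and to 10.4 μM LDK-378 wells. IC50 came from a concentration-response fit.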
(Time-resolved FRET reads energy transfer from a long-lived donor to a nearby acceptor.)

For assay [2], the system named is NCI-H2228 cell line. Kind of assay: CellTiter-Glo cell proliferation inhibition on NCI-H2228 cell line. The class given is cell-based. The settings on record: Homo sapiens, NCI-H2228, 96 h, NCI-H2228 cells, 5000 cells/well, 4 days drug treatment. The gist of the method:
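NCI-H2228 cells, 5000/well in RPMI-1640 + 10% FBS, treated with compounds 2 h after seeding (0.5% DMSO final) for 4 days at 37° C. Viability by CellTiter-Glo luminescence; inhibition relative to DMSO control, IC50 from curve fit.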
(In ATP-based viability assays light output follows the ATP content of the culture.)

T1 sequence (Q9UM73 19-1620): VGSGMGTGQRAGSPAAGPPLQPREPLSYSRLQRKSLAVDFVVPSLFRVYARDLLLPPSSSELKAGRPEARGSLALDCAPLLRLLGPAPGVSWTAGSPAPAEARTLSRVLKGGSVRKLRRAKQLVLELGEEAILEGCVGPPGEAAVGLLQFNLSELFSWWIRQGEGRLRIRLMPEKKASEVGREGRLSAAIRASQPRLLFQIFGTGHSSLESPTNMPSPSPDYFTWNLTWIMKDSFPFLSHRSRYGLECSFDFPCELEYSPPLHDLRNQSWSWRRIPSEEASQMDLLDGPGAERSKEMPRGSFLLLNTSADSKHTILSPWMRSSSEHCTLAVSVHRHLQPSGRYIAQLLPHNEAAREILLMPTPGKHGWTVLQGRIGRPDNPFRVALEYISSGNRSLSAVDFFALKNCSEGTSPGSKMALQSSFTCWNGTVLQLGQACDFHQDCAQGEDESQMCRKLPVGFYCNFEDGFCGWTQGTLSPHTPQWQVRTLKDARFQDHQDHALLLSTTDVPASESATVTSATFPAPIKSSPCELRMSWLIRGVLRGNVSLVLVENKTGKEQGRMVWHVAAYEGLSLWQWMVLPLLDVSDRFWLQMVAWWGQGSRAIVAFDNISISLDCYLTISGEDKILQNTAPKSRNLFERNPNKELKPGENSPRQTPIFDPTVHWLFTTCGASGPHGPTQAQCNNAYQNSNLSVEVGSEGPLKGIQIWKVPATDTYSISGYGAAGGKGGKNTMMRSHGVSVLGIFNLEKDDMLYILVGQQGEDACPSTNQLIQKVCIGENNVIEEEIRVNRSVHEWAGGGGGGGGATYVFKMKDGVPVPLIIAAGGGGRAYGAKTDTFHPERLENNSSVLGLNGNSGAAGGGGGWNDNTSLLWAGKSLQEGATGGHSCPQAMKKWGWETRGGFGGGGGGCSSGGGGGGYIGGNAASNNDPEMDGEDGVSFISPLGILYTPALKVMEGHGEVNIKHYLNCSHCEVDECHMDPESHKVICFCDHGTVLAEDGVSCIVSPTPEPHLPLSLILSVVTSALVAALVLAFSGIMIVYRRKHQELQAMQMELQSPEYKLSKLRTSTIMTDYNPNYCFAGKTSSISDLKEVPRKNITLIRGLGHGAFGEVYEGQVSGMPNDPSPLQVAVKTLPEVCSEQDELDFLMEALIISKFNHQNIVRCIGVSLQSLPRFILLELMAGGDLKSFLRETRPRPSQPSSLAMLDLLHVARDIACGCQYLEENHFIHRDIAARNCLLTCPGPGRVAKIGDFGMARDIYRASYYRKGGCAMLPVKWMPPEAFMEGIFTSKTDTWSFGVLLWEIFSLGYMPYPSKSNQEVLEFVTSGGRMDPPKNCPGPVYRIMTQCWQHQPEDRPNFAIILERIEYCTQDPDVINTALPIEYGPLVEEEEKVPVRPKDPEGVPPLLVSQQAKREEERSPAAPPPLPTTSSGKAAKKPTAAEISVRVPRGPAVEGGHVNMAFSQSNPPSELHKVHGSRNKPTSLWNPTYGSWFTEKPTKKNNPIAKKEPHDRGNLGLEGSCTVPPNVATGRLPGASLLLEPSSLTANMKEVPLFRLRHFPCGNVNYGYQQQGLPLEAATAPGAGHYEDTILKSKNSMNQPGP

In the case of `Cc1cc(Nc2ncc(Cl)c(Nc3cn(C)nc3S(=O)(=O)C(C)C)n2)c(OC2CC2)cc1C1=CCNCC1` [Final product 25], the 50% inhibitory concentration (IC50) in assay [1] turned out to be 0.002 µM; in assay [2], 0.19 µM.

Consider `CC(C)S(=O)(=O)c1nn(C2CC2)cc1Nc1nc(Nc2cc(Cl)c(C3CCN(C)CC3)cc2OC2CC2)ncc1Cl` [Final product 48], for which the IC50 in assay [1] came out at 0.002 µM; in assay [2], 0.115 µM.

With `CC(C)S(=O)(=O)c1nn(C2CC2)cc1Nc1nc(Nc2cc(F)c(C3CCNCC3)cc2OC2CC2)ncc1Cl` [Final product 21], the results for the IC50 in assay [1] and in assay [2] were 0.001 µM and 0.062 µM, respectively.

As to `Cc1cc(Nc2ncc(Cl)c(Nc3cn(C)nc3S(=O)(=O)C(C)C)n2)c(OC2CC2)cc1C1CCN(C(=O)CN(C)C)CC1` [Final product 165, 1-(2-dimethylamino)acetyl-4-(4-(5-chloro-4-(3-(isopropylsulfonyl)-1-methyl-1H-pyrazol-4-amino)pyrimidin-2-amino)-5-cyclopropoxy-2-methylphenyl)piperidine], the IC50 amounted to 0.002 µM in assay [1] and 0.035 µM in assay [2].

Turning to `Cc1cc(Nc2ncc(Cl)c(Nc3cn(C)nc3S(=O)(=O)C(C)C)n2)c(OC2CC2)cc1[C@H]1CC[C@H](NC(C)C)CC1` [Final product 198], the IC50 in assay [1] is 0.005 µM; in assay [2], 0.054 µM.

For the compound `CC(C)S(=O)(=O)c1nn(C2CC2)cc1Nc1nc(Nc2ccc(C3CCN(C)CC3)cc2OC2CC2)ncc1Cl` [Final product 42], the results for the IC50 in assay [1] and in assay [2] were 0.001 µM and 0.029 µM, respectively.

`CC(C)CS(=O)(=O)c1nn(C)cc1Nc1nc(Nc2ccc(C3CCNC3)cc2OC2CC2)ncc1Cl` (stereo not shown) [Final product 18]: the figures for the half-maximal inhibitory concentration (IC50) in assay [1] and in assay [2] were 0.002 µM and 0.157 µM, respectively.

Consider `Cc1cc(Nc2ncc(Cl)c(Nc3cn(C4CC4)nc3S(=O)(=O)C(C)C)n2)c(OC(C)C)cc1C1CCNCC1` [Final product 5], for which the IC50 in assay [1] turned out to be 0.006 µM; in assay [2], 0.248 µM.

Regarding `Cc1cc(Nc2ncc(Cl)c(Nc3cn(C)nc3S(=O)(=O)C(C)C)n2)c(OC2CC2)cc1C1=C(Cl)CN(C)CC1` [Final product 208, 5-chloro-N^2-[4-(5-chloro-1-methyl-1,2,3,6-tetrahydro-pyridin-4-yl)-2-cyclopropoxy-5-methyl-phenyl]-N^4-[1-methyl-3-(isopropylsulfonyl)-1H-pyrazol-4-yl]-pyrimidin-2,4-diamine], the results for the IC50 in assay [1] and in assay [2] were 0.006 µM and 0.152 µM, respectively.

For the compound `Cc1cc(Nc2ncc(Cl)c(Nc3cn(C)nc3S(=O)(=O)CC(C)C)n2)c(OC(C)C)cc1C1CCNCC1` [Final product 6], the IC50 in assay [1] was determined as 0.003 µM; in assay [2], 0.193 µM.

On to `CCN(CC)[C@H]1CC[C@H](c2cc(OC3CC3)c(Nc3ncc(Cl)c(Nc4cn(C)nc4S(=O)(=O)CC(C)C)n3)cc2C)CC1` [Final product 178], for which the IC50 in assay [1] worked out at 0.018 µM; in assay [2], 0.101 µM.

In the case of `Cc1cc(Nc2ncc(Cl)c(Nc3cn(C)nc3S(=O)(=O)C(C)C)n2)c(C(F)(F)F)cc1C1CCNCC1` [Final product 11], the IC50 stood at 0.022 µM in assay [1] and 0.641 µM in assay [2].

On to `Cc1cc(Nc2ncc(Cl)c(Nc3cn(C)nc3S(=O)(=O)C(C)C)n2)c(OC(C)C)cc1C1CN(S(C)(=O)=O)C1` [Final product 168], for which the IC50 in assay [1] turned out to be 0.014 µM; in assay [2], 0.44 µM.

In the case of `CC(C)S(=O)(=O)c1nn(C)cc1Nc1nc(Nc2cc(F)c(C3CCN(C)C3)cc2OC2CC2)ncc1Cl` (stereo not shown) [Final product 45], the 50% inhibitory concentration (IC50) in assay [1] was determined as 0.004 µM; in assay [2] it was 0.135 µM.

Consider `Cc1cc(Nc2ncc(Cl)c(Nc3cn(C)nc3S(=O)(=O)C(C)C)n2)c(OC(C)C)cc1C1CCN(C(C)C)CC1` [Final product 126], for which the 50% inhibitory concentration (IC50) in assay [1] is 0.007 µM; in assay [2], 0.142 µM.

`Cc1cc(Nc2ncc(Cl)c(Nc3cn(C)nc3S(=O)(=O)C(C)C)n2)c(OC2CC2)cc1C1CCN(C(=O)C(C)(C)C)CC1` [Final product 164, 1-pivaloyl-4-(4-(5-chloro-4-(3-(isopropylsulfonyl)-1-methyl-1H-pyrazol-4-amino)pyrimidin-2-amine)-5-cyclopropoxy-2-methylphenyl)piperidine]: the half-inhibitory concentration (IC50) in assay [1] is 0.056 µM; in assay [2], 0.087 µM.

As to `Cc1cc(Nc2ncc(Cl)c(Nc3cn(C)nc3S(=O)(=O)C(C)C)n2)c(OC2CC2)cc1C1CCN(C(=O)C2CC2)CC1` [Final product 162, 1-cyclopropylformyl-4-(4-(5-chloro-4-(3-(isopropylsulfonyl)-1-methyl-1H-pyrazol-4-amino)pyrimidin-2-amine)-5-cyclopropoxy-2-methylphenyl)piperidine], the values for the IC50 in assay [1] and in assay [2] were 0.019 µM and 0.034 µM, respectively.

Consider `CCNC(=O)N1CCC(c2cc(OC3CC3)c(Nc3ncc(Cl)c(Nc4cn(C)nc4S(=O)(=O)C(C)C)n3)cc2C)CC1` [Final product 174, 4-(4-(5-chloro-4-(3-(isopropylsulfonyl)-1-methyl-1H-pyrazol-4-amine)pyrimidin-2-amine)-5-cyclopropoxy-2-methyl-phenyl)-N-ethyl-piperidin-1-carboxamide], for which the 50% inhibitory concentration (IC50) in assay [1] worked out at 0.004 µM; in assay [2], 0.082 µM.

Regarding `Cc1cc(Nc2ncc(Cl)c(Nc3cn(C)nc3S(=O)(=O)CC(C)C)n2)c(OC2CC2)cc1C1CN(S(C)(=O)=O)C1` [Final product 171], the IC50 in assay [1] was 0.086 µM; in assay [2] it was 0.251 µM.

`Cc1cc(Nc2ncc(Cl)c(Nc3cn(C)nc3S(=O)(=O)C(C)C)n2)c(OC(C)C)cc1C1CCN(C)C1` (stereo not shown) [Final product 37]: the IC50 in assay [1] turned out to be 0.007 µM; in assay [2] it was 0.131 µM.

`Cc1cc(Nc2ncc(Cl)c(Nc3cn(C)nc3S(=O)(=O)CC(C)C)n2)c(OC2CC2)cc1[C@H]1CC[C@H](NC2CC2)CC1` [Final product 180]: the IC50 in assay [1] stood at 0.035 µM; in assay [2] it was 0.127 µM.

Regarding `CC(C)S(=O)(=O)c1nn(C)cc1Nc1nc(Nc2ccc(C3=CCNCC3)cc2OC2CC2)ncc1Cl` [Final product 14], the values for the IC50 in assay [1] and in assay [2] were 0.004 µM and 0.168 µM, respectively.

Regarding `Cc1cc(Nc2ncc(Cl)c(Nc3cn(C)nc3S(=O)(=O)C(C)C)n2)c(OC(C)C)cc1[C@H]1CC[C@H](NC(C)C)CC1` [Final product 188], the IC50 in assay [1] is 0.005 µM; in assay [2] it was 0.089 µM.

In the case of `CCOc1cc(C2CCN(CCO)CC2)c(C)cc1Nc1ncc(Cl)c(Nc2cn(C)nc2S(=O)(=O)C(C)C)n1` [Final product 135], the results for the IC50 in assay [1] and in assay [2] were 0.003 µM and 0.033 µM, respectively.

Regarding `Cc1cc(Nc2ncc(Cl)c(Nc3cn(C)nc3S(=O)(=O)C(C)C)n2)c(OC(CF)CF)cc1C1CCNCC1` [Final product 8], the half-maximal inhibitory concentration (IC50) in assay [1] was 0.009 µM; in assay [2], 0.562 µM.

On to `CC(C)S(=O)(=O)c1nn(C)cc1Nc1nc(Nc2ccc(C3CCNCC3)cc2OC(F)(F)F)ncc1Cl` [Final product 9], for which the IC50 was 0.016 µM in assay [1] and 0.652 µM in assay [2].

In the case of `Cc1cc(Nc2ncc(Cl)c(Nc3cn(C)nc3S(=O)(=O)C(C)C)n2)c(OC2CC2)cc1C1CCNCC1` [Final product 24], the figures for the IC50 in assay [1] and in assay [2] were 0.002 µM and 0.122 µM, respectively.

Consider `CC(C)S(=O)(=O)c1nn(C)cc1Nc1nc(Nc2cc(C#N)c(C3CCNCC3)cc2OC2CC2)ncc1Cl` [Final product 29], for which the IC50 came to 0.004 µM in assay [1] and 0.159 µM in assay [2].

For the compound `Cc1cc(Nc2ncc(Cl)c(Nc3cn(C)nc3S(=O)(=O)CC(C)C)n2)c(OC2CC2)cc1C1CCN(C(C)C)CC1` [Final product 127], the IC50 in assay [1] amounted to 0.005 µM; in assay [2], 0.142 µM.

Broadly, the IC50 is the point on the concentration scale where inhibition reaches its midpoint.

These data come from patent publication US10023593B2, “ALK kinase inhibitor, and preparation method and uses thereof” (BEIJING PEARL BIOTECHNOLOGY LIMITED LIABILITY COMPANY, priority 2014, dated 2018).
